{"source": "patent US6506928B1", "about": "“Dendrimeric fullerene derivatives, process for their preparation, and use as neuroprotectants” (Siemens Axiva GmbH & Co. KG, priority 1998, dated 2003)", "key": {"physchem": {"test": "physchem", "description": "The dendrimer fullerene 1 of second generation [18-cascade:methano-C60-fullerene[2]:(2-aza-7-oxa-3,8-dioxooctylidyne):(2-aza-3-oxopentylidyne):propanoic acid] (cf. preparation example 1) is prepared (Scheme 3) analogously to the synthesis of the derivative of first generation 8 shown in Scheme 2. As in the first case, the tert-butyl-protected γ-aminotriscarboxylic acid 3 is reacted with the appropriate nitrotriscarboxylic acid 9, whose tert-butyl ester is the synthesis precursor of 3 (15, 16), using DCC in the presence of 1HO-BT and subsequent reduction with hydrogen to the dendron 10 of second generation [9-cascade:aminomethane[3]:(2-aza-3-oxopentylidyne):tert-butyl propanoate]. […] The analogous removal of the protective groups leads to the dendrimer fullerene 1 of the second generation."}, "apoptotic neural death": {"tested_on": "apoptotic neural death", "details": "induced by serum withdrawal or exposure of Aβ1-42 protein; literature /12/; cited from earlier work"}}}
{"compound": "O=CCCC(CCC(=O)O)(CCC(=O)O)NC(=O)CCC(CCC(=O)NC(CCC(=O)O)(CCC(=O)O)CCC(=O)O)(CCC(=O)NC(CCC(=O)O)(CCC(=O)O)CCC(=O)O)NC(=O)CCCOC(=O)C1(C(=O)OCCCC(=O)NC(CCC(=O)NC(CCC(=O)O)(CCC(=O)O)CCC(=O)O)(CCC(=O)NC(CCC(=O)O)(CCC(=O)O)CCC(=O)O)CCC(=O)NC(CCC(=O)O)(CCC(=O)O)CCC(=O)O)C2c3cc4c5c6c(cc7ccc8cc9c%10c%11c(cc(c%12c3c5c(c%12%11)c3c6c7c8c%103)C21)C9)C4", "note": "(stereo not shown) [compound 1, 18-cascade:methano-C60-fullerene[2]:(2-aza-7-oxa-3,8-dioxooctylidyne):(2-aza-3-oxopentylidyne):propanoic acid]", "values": [{"measurement": "solubility (in words)", "setting": "physchem", "value": "very readily soluble"}, {"measurement": "solubility", "setting": "physchem; 25 °C, pH 7, aqueous buffer", "value": "~34", "unit": "mg/mL"}, {"measurement": "solubility", "setting": "physchem; pH 10, aqueous buffer", "value": "~250", "unit": "mg/mL"}]}
{"compound": "C60[C(COOH)2]3 [C3-symmetrical derivative]", "values": [{"measurement": "reduction of apoptotic neural death", "setting": "apoptotic neural death", "value": "reduced apoptotic neural death"}]}
